Reference: patent publication US11241455B2, “Methods of treating disease by metabolic control of T-cell differentiation” (The J. David Gladstone Institutes, a testamentary trust …, priority 2016, dated 2022)

What was measured:
Type in all cases: cell-based, mouse
[1] = tested on: differentiating iTreg cells; assay: iTreg differentiation of CD4 naïve T cells (FOXP3-GFP reporter or intracellular staining of FOXP3); conditions: AOA added after 24 hours, analyzed at end of differentiation
Method: CD4 naïve T cells (CD4+CD25-CD62^highCD44^low) were obtained from interleukin (IL)-17F-red fluorescent protein (RFP)/FOXP3-green fluorescent protein (GFP) mice, which were characterized previously, or wild-type C57/BL6 mice, by cell sorting. 0.4 million cells were plated into 48 wells coated with anti-mouse CD3 (clone 145-2C11, eBioscience) […] and anti-mouse CD28 (clone 37.51, eBioscience) (1 μg/ml). The differentiation media for these naïve T cells was as follows: 0.5 ng/ml (or indicated) transforming growth factor (TGF) β, 200 U/ml mouse IL-2, 2 μg/ml anti-interferon (IFN) γ and 2 μg/ml anti-mouse IL4 for differentiation into iTreg cells; and 2.5 ng/ml TGFβ, 10 ng/ml mouse IL-1β, 10 ng/ml mouse IL-6, 10 ng/ml mouse IL-23, 2 μg/ml anti-mouse IFNγ, and anti-mouse IL-4 for differentiating into TH17 cells. The cells were supplemented with new medium at day 4. In cases in which small-molecule compounds were present, the fresh medium containing the same concentration of compounds was used. When necessary, the individual metabolite was added into the T-cell culture 6 hours later after initial cell plating. […]

[2] = tested on: differentiating iTreg cells; assay: 15N-α-glutamine flux analysis (transamination) in differentiating iTreg cells
Method: CD4 naïve T cells, differentiating TH17 or iTreg cells (68 hours) were incubated with fresh media prior to labeling. The cells were then cultured for 4 hours at 37° C. with medium where the glutamine was replaced with the corresponding stable isotope label: 2 mM U-^13C glutamine or 2 mM ^15N-α-glutamine for 4 hours at 37° C. The cells were quickly collected and quickly washed with phosphate buffer saline (PBS), pelleted, and snap frozen in liquid nitrogen. The frozen samples were kept in −80° C. until extraction. Cell extracts were prepared by first adding 80/20 MeOH/H2O at −60° C. to the frozen pellets and collecting the supernatant after centrifugation at 4° C. The extracted samples were analyzed by high-resolution liquid-chromatography-mass spectrometry. Unlabeled glutamine-fed cells were used as background.
For amino acid profiling: The ultra-high pressure liquid chromatography (U-HPLC) system consisted of a Thermo Fisher Scientific (San Jose, USA) U-HPLC pumping system, coupled to an autosampler and degasser. Chromatographic separation of the intracellular metabolites was achieved by usage of a reversed phase Atlantis® T3 (3 μm, 2.1 mm ID×150 mm) column (Waters, Eschborn, Germany) and by implementation of a gradient elution program. […]

[3] = tested on: differentiating TH17 cells; assay: Intracellular metabolite profiling by LC/MS in differentiating TH17 cells
Method: CD4 naïve T cells, differentiating TH17 cells (day 2.5), and differentiating iTreg cells (day 2.5) were obtained as described above. A solution of 80/20 methanol (MeOH)/H2O was used to extract intracellular metabolites. The extracted samples were analyzed with liquid chromatography (LC)/mass spectrometry (MS) metabolomics. 200 ng/mL of extraction standard (L-Glutamic acid-^13C5-^15N-d5) was added into samples, and the peak value for each metabolite was normalized to extraction standard. The data was transformed into Log 2 and clustered. Cell extracts obtained as described above were analyzed for relative abundance of ^13C and ^15N metabolites by liquid chromatography-triple quadrupole mass spectrometry (LC-MS) using scheduled selective reaction monitoring (SRM) for each metabolite of interest, with the detector set to negative mode. Quantitation of intracellular 2-hydroxyglutarate (2HG) was conducted as described previously (Kernesky et al., Blood 2015, 125(2) 296-303).

[4] = tested on: FOXP3, Il17, Il17f, and Rorc mRNA in TH17 cells; assay: mRNA expression analysis by qRT-PCR in TH17 cells; conditions: normalized to β-actin
Method: At the end of differentiation (day 6), T cells were re-stimulated with plate-coated anti-CD3 and anti-CD28 for 5 hours in the absence of any small-molecule compounds or metabolites. Quantitative reverse transcriptase polymerase chain reaction (qRT-PCR) was performed to evaluate mRNA expression of FOXP3, Il17, Il17f, and Rorc. For differentiating TH17 or iTreg cells, cells were collected on day 2.5 or at the indicated time for mRNA expression analysis. The expression was normalized to β-actin.

[5] = differentiating TH17 cells, day 2.5, 0.5 mM AOA

## NOCC(=O)O [AOA, (aminooxy)-acetic acid]
[1]
  iTreg cell induction under iTreg differentiation conditions: dose-dependently promote iTreg cell induction
[2]; differentiating iTreg cells fed 2 mM 15N-α-glutamine for 4 hours
  reduction of total intracellular 15N-α-aspartate: 75%
[2]; differentiating iTreg cells, 2 mM 15N-α-glutamine for 4 hours
  de novo synthesis for several amino acids (15N label incorporation): significant decreases
[3]; [5]
  abundance of TCA cycle intermediates (α-KG, succinate, fumarate, malate, citrate): reduced partially
  level of glutamate: slightly higher
  reduction of steady-state levels of 2-HG: 75%
[3]; re-plotted from FIG. 2a: differentiating TH17 or iTreg cells (day 2.5), absence or presence of AOA
  level of glutathione, oxidized glutathione, or L-asparate: does not affect
[4]
  FOXP3 mRNA expression: promoted transcription of FOXP3
[4]; re-stimulated with anti-CD3 and anti-CD28 for 5 hours
  Il17/Il17f mRNA level: selectively reduced the mRNA level of Il17/Il17f
